Test [1] concerns the target T1, Bone morphogenetic protein 1 (Homo sapiens, UniProt P13497).
T1 sequence (P13497 whole entry): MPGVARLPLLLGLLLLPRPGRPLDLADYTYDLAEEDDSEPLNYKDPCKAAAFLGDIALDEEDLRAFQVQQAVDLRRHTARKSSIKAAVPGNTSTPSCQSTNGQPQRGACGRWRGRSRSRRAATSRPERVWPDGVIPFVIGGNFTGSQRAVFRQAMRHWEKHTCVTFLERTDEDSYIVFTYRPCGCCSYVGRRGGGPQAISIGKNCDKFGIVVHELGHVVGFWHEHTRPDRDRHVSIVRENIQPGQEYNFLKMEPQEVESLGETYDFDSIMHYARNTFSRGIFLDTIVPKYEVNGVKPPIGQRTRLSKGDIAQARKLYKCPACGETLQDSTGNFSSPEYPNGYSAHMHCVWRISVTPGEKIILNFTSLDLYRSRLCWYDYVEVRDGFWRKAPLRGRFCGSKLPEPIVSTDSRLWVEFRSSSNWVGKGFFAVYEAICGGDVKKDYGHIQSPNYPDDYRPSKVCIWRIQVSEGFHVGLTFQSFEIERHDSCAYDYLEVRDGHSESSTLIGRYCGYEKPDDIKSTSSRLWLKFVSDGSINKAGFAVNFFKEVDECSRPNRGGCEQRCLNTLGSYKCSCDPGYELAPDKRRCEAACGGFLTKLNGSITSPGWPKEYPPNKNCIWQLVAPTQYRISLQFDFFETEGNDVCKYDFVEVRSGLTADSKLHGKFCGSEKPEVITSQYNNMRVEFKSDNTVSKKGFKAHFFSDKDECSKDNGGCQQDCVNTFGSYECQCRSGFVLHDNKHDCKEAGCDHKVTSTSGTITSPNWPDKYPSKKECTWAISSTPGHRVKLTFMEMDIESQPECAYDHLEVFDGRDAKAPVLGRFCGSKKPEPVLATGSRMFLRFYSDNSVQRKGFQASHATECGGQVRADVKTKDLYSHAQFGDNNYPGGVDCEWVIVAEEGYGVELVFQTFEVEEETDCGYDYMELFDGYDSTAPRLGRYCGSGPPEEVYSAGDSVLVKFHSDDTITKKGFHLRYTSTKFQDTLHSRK
The experiment in a line: Inhibition of C-terminal FLAG-6x-His epitope tagged and N-terminal human RAGE signal sequence tagged human BMP1 (23 to 721 amino acids) expressed in CHO-E1 cells pre-incubated for 10 mins before promyostatin peptide substrate addition and measured after 60 mins using 0.5 nM BMP1 by FRET based assay. The test is classed as cell-based.

Test [2] has as its target T1, Bone morphogenetic protein 1. The experiment in a line: Inhibition of C-terminal FLAG-6x-His epitope tagged and N-terminal human RAGE signal sequence tagged human BMP1 (23 to 721 amino acids) expressed in CHO-E1 cells pre-incubated for 10 mins before promyostatin peptide substrate addition and measured after 30 mins using 50 nM BMP1 by FRET based assay. The test is classed as cell-based.

The next test addresses Tolloid-like protein 1 (Homo sapiens, UniProt O43897, I156V/N221S/V284A). Briefly: Inhibition of recombinant human TLL1 I156V/N221S/V284A mutant expressed in CHOE1A cells pre-incubated for 10 mins before promyostatin peptide substrate addition and measured after 60 mins by FRET based assay. Type of test: cell-based.
A further test has as its target T2, Tolloid-like protein 2 (Homo sapiens, UniProt Q9Y6L7).
T2 sequence (Q9Y6L7 whole entry): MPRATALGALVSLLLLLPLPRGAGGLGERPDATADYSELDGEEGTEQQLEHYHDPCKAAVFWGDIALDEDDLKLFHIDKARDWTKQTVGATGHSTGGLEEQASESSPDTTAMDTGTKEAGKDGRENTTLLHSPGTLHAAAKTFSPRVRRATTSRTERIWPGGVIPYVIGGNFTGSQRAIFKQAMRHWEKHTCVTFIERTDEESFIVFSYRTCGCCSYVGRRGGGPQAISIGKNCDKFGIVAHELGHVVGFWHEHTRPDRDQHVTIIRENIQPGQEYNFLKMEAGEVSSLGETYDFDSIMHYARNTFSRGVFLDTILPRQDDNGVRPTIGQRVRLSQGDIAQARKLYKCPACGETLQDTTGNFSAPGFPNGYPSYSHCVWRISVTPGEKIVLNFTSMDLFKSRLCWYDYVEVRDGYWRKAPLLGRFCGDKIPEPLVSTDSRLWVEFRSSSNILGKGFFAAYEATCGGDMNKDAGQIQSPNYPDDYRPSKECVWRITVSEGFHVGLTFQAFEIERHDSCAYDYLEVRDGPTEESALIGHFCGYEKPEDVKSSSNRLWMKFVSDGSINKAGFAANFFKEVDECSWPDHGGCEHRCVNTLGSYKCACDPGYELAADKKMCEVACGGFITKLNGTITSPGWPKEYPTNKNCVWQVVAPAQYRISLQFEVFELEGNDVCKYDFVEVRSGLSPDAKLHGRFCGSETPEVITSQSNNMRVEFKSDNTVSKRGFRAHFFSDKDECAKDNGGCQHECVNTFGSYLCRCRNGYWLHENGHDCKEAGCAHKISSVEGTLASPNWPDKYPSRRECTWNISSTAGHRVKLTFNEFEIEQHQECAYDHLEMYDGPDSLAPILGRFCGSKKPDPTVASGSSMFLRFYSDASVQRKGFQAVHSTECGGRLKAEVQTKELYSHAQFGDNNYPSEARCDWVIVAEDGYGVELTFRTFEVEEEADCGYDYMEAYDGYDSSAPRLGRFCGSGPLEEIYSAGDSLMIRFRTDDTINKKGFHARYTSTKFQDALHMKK
The experiment in a line: Inhibition of C-terminal Avi-6x-His epitope tagged and N-terminal human RAGE signal sequence tagged recombinant human TLL2 (26 to 1015 amino acids) expressed in CHOE1A cells incubated for 60 mins with promyostatin peptide substrate by FRET based assay. Type of test: cell-based.

Test [3] in a line: Reduction in PICP levels in human cardiac fibroblasts incubated for 24 to 48 hrs by ELISA. The test is classed as functional. Put shortly:
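Procollagen I C-terminal propeptide in the culture medium was quantified using a Quidel ELISA. The cells were human cardiac fibroblasts of passage 6 or below, seeded at 10,000 to 15,000 cells per well in 96-well plates and treated the next day in ficoll crowding EMEM with 100 μM ascorbic acid and under 0.3% DMSO. Treatment lasted 24 to 48 hr at 37° C. For IC50, levels normalized to untreated controls were fitted to a log(inhibitor)-response equation in GraphPad Prism.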

Test [4] in a line: Reduction in mature collagen deposition levels in human cardiac fibroblasts incubated for 24 to 48 hrs by immunostaining based assay. The test is classed as functional. Put shortly:
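Treatment of human cardiac fibroblasts took place in 96-well plates using ficoll crowding EMEM with 100 μM ascorbic acid and under 0.3% DMSO, at 37° C for 24 to 48 hr. Cells were then fixed for 10 min in −20° C methanol and stained for mature collagen I and nuclei. Collagen intensity per field was normalised to nuclei count, and GraphPad Prism was used to fit the IC50.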

The IC50 is the concentration that gives 50% inhibition.

Chain of Tolloid-like protein 1 (O43897 148-1013 I156V/N221S/V284A limits assumed): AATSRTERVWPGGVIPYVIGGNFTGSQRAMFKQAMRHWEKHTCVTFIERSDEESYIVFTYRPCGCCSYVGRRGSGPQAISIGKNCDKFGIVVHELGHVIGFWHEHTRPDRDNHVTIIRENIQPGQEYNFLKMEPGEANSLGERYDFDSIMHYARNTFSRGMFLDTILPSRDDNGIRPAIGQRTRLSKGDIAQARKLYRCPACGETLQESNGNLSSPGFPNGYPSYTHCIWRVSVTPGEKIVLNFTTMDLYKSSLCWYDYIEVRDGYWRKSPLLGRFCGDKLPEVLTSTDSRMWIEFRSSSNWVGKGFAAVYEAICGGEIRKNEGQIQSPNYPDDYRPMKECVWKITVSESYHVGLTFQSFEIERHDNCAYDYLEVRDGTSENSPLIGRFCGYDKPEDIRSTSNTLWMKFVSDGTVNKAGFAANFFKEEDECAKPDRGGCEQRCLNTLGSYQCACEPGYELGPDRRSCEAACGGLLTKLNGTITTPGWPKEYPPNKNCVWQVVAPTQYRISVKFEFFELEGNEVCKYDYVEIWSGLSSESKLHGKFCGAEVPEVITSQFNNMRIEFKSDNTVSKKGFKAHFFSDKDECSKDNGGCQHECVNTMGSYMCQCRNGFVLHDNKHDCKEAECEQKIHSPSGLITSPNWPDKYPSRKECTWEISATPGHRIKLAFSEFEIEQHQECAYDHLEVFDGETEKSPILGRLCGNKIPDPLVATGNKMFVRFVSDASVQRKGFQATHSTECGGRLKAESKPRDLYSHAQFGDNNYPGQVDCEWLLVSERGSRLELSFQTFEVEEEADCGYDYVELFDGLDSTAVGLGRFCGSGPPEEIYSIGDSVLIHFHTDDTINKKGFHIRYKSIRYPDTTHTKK

Turning to `CCCCC[C@@H](C(=O)NCNC(=O)c1ccc(-c2cc(O)c(C(=O)O)c(OCC)c2)o1)[C@@H](CC)N(O)C=O`, the IC50 in test [1] is < 126 nM; in test [2], < 200 nM; at Tolloid-like protein 1, < 398 nM; at Tolloid-like protein 2, < 794 nM; in test [3] it was < 3.98 µM; in test [4] it was < 1000 nM.
As for `CCCCC[C@@H](C(=O)NCNC(=O)c1ccc(-c2ccc(C(=O)N[C@H](CC(=O)O)C(=O)O)c(OCC)c2)o1)[C@@H](CC)N(O)C=O`, the half-maximal inhibitory concentration (IC50) in test [1] is < 126 nM; in test [2] it was < 200 nM; on Tolloid-like protein 1 it was < 398 nM; at Tolloid-like protein 2 it was < 794 nM; in test [3], < 3.98 µM; in test [4] it was < 1000 nM.
Take `CCCCC[C@@H](C(=O)NCNC(=O)c1ccc(-c2ccc(C(=O)NCP(=O)(O)O)c(OCC)c2)o1)[C@@H](CC)N(O)C=O`: the concentration for half-maximal inhibition (IC50) in test [1] is < 126 nM; in test [2] it was < 200 nM; on Tolloid-like protein 1, < 398 nM; at Tolloid-like protein 2, < 794 nM; in test [3], < 3.98 µM; in test [4], < 1000 nM.

The values are drawn from ChEMBL document CHEMBL4476867, “Hydroxy formamide derivatives and their use” (2016).
